Reference: patent publication US11629171B2, “Beta-hairpin peptidomimetics” (POLYPHOR AG, priority 2017, dated 2023)
≈ marks a conversion by molar mass, not a printed value. Where a SMILES comes first, the peptide text is derived from it. Bridges are numbered along the chain shown (N, C = ends). Roman numbers before positions name the chains, in order. [ ]: non-standard residue; d: D form. Leu(3R-OH) = CC(C)[C@@H](O)[C@H](N)C(=O)O; Thr(ol) = C[C@@H](O)[C@H](N)CO; Pen = CC(C)(S)[C@H](N)C(=O)O; Tle = CC(C)(C)[C@H](N)C(=O)O; NMeV = CN[C@H](C(=O)O)C(C)C; Hiv = CC(C)[C@H](O)C(=O)O; dDab = NCC[C@@H](N)C(=O)O; hCys = N[C@@H](CCS)C(=O)O; hSer = N[C@@H](CCO)C(=O)O; Dab = NCC[C@H](N)C(=O)O; Dap = NC[C@H](N)C(=O)O

Assays:
Type in all cases: cell-based
[1] = system: Escherichia coli ATCC 25922; conditions: ATCC 25922
Method in brief: (§1)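 CLSI broth microdilution: inoculum ~10^6 CFU/mL in cation-adjusted Mueller-Hinton II broth, with peptide in serial two-fold dilutions plus Polysorbate 80 (0.002% final). MIC (μg/mL) is the lowest concentration without visible growth after 18-20 hours at 35° C.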

Escherichia coli 926415 = conditions: 926415
Method in brief: as §1

[2] = system: Acinetobacter baumannii 872842; conditions: 872842
Method in brief: as §1

[3] = system: Klebsiella pneumoniae SSI #3010; conditions: SSI #3010
Method in brief: as §1

[4] = system: Klebsiella pneumoniae 968733; conditions: 968733
Method in brief: as §1

[5] = system: Acinetobacter baumannii DSM 30008; conditions: DSM 30008
Method in brief: as §1

[6] = system: Enterobacter cloacae 848840; conditions: 848840
Method in brief: as §1

[7] = system: Pseudomonas aeruginosa ATCC 27853; conditions: ATCC 27853
Method in brief: as §1

[8] = system: human red blood cells (hRBC); assay: Hemolysis; conditions: red cells of human, 1 h, 200
Method in brief: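 Read-out is supernatant absorbance at 540 nm, normalised to full lysis by 2% Triton X-100 and zero lysis by PBS with 10% water. Peptides (200 μg/mL) were exposed to 20% v/v washed human erythrocytes at 37° C for 1 h under shaking.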

Row | Structure (SMILES) | MIC [1] [µg/mL] | MIC (Escherichia coli 926415) [µg/mL] | MIC [2] [µg/mL] | MIC [3] [µg/mL] | MIC [4] [µg/mL] | MIC [5] [µg/mL] | MIC [6] [µg/mL] | MIC [7] [µg/mL] | Hemolysis at 200 μg/mL [8] [%] | Escherichia coli ATCC 25922 MIC [1] [µg/mL] | Klebsiella pneumoniae SSI #3010 MIC [3] [µg/mL] | Acinetobacter baumannii DSM 30008 MIC [5] [µg/mL] | Pseudomonas aeruginosa ATCC 27853 MIC [7] [µg/mL]
1 | CC(=O)N[C@@H](CCN)C(=O)N[C@H](C(=O)N[C@H]1CSSC[C@@H](C(N)=O)NC(=O)[C@H](C(C)(C)C)NC(=O)[C@H](CO)NC(=O)[C@H](Cc2c[nH]c3ccccc23)NC(=O)[C@H](CCN)NC(=O)[C@@H](CCN)NC(=O)[C@H](CCC(=O)N[C@@H](CCN)C(=O)N[C@H](C(=O)N[C@@H](CN)C(=O)N[C@H]2CCNC(=O)[C@H]([C@@H](C)O)NC(=O)[C@H](CCN)NC(=O)[C@H](CCN)NC(=O)[C@H](CC(C)C)NC(=O)[C@@H](CC(C)C)NC(=O)[C@H](CCN)NC2=O)[C@@H](C)O)NC(=O)[C@H](CN)NC(=O)[C@H](Cc2ccc(O)cc2)NC1=O)C(C)C [Ex. 126] (I: Ac-[Dab]VCY[Dap]E[dDab][Dab]WS[Tle]C-NH2 / II: [Dab]T[Dap][Dab][Dab][dL]L[Dab][Dab]T; disulfide I:3-I:12; amide I:6-II:N; lactam II:4-II:C) | 0.125 (≈ 0.0515 µM) | 0.125 (≈ 0.0515 µM) | 0.25 (≈ 0.103 µM) | 0.125 (≈ 0.0515 µM) | 0.25 (≈ 0.103 µM) | 0.125 (≈ 0.0515 µM) | 0.5 (≈ 0.206 µM) | 0.25 (≈ 0.103 µM) | <1 |  |  |  | 
2 | CC(=O)N[C@H](C(=O)N[C@H]1CSSC[C@@H](C(=O)NCC(=O)N[C@H](CO)C(N)=O)NC(=O)[C@H](C(C)C)NC(=O)[C@H](CO)NC(=O)[C@H](Cc2c[nH]c3ccccc23)NC(=O)[C@H](CO)NC(=O)[C@@H](CCN)NC(=O)[C@H](CCC(=O)N[C@@H](CCN)C(=O)N[C@H](C(=O)N[C@@H](CN)C(=O)N[C@H]2CCNC(=O)[C@H]([C@@H](C)O)NC(=O)[C@H](CCN)NC(=O)[C@H](CCN)NC(=O)[C@H](CC(C)C)NC(=O)[C@@H](CC(C)C)NC(=O)[C@H](CCN)NC2=O)[C@@H](C)O)NC(=O)[C@H](CCN)NC(=O)[C@H](Cc2ccc(O)cc2)NC1=O)C(C)C [Ex. 377] (I: Ac-VCY[Dab]E[dDab]SWSVCG[dS]-NH2 / II: [Dab]T[Dap][Dab][Dab][dL]L[Dab][Dab]T; disulfide I:2-I:11; amide I:5-II:N; lactam II:4-II:C) |  | 0.125 (≈ 0.0509 µM) | 0.0625 (≈ 0.0254 µM) |  | 0.0625 (≈ 0.0254 µM) |  | 0.0625 (≈ 0.0254 µM) |  | <1 | 0.01562 | 0.03125 | 0.01562 | 0.0625
3 | CC(=O)N[C@H](C(=O)N[C@H]1CCSSC[C@@H](C(=O)N[C@@H](CO)C(N)=O)NC(=O)[C@H](C(C)(C)C)NC(=O)[C@H](CO)NC(=O)[C@H](Cc2c[nH]c3ccccc23)NC(=O)[C@H](CO)NC(=O)[C@@H](CCN)NC(=O)[C@H](CCC(=O)N[C@@H](CCN)C(=O)N[C@H](C(=O)N[C@@H](CN)C(=O)N[C@H]2CCNC(=O)[C@H]([C@@H](C)O)NC(=O)[C@H](CCN)NC(=O)[C@H](CCN)NC(=O)[C@H](CC(C)C)NC(=O)[C@@H](CC(C)C)NC(=O)[C@H](CCN)NC2=O)[C@@H](C)O)NC(=O)[C@H](CN)NC(=O)[C@H](Cc2ccc(O)cc2)NC1=O)C(C)C [Ex. 121] (I: Ac-V[hCys]Y[Dap]E[dDab]SWS[Tle]CS-NH2 / II: [Dab]T[Dap][Dab][Dab][dL]L[Dab][Dab]T; disulfide I:2-I:11; amide I:5-II:N; lactam II:4-II:C) | 0.0625 (≈ 0.0259 µM) | 0.125 (≈ 0.0518 µM) | 0.0625 (≈ 0.0259 µM) | 0.125 (≈ 0.0518 µM) | 0.25 (≈ 0.104 µM) | 0.0625 (≈ 0.0259 µM) | 0.125 (≈ 0.0518 µM) | 0.125 (≈ 0.0518 µM) | <1 |  |  |  | 
4 | CC(=O)N[C@@H](CCN)C(=O)N[C@H](C(=O)N[C@H]1CSSC[C@@H](C(=O)N[C@H](C(N)=O)C(C)C)NC(=O)[C@H](C(C)C)NC(=O)[C@@H]2CSSC[C@H](NC(=O)[C@H](Cc3ccc(O)cc3)NC1=O)C(=O)N[C@@H](CCC(=O)N[C@@H](CCN)C(=O)N[C@H](C(=O)N[C@@H](CN)C(=O)N[C@H]1CCNC(=O)[C@H]([C@@H](C)O)NC(=O)[C@H](CCN)NC(=O)[C@H](CCN)NC(=O)[C@H](CC(C)C)NC(=O)[C@@H](CC(C)C)NC(=O)[C@H](CCN)NC1=O)[C@@H](C)O)C(=O)N[C@H](CCN)C(=O)N[C@@H](CO)C(=O)N[C@@H](Cc1c[nH]c3ccccc13)C(=O)N2)[C@H](O)C(C)C [Ex. 235] (I: Ac-[Dab][Leu(3R-OH)]CYCE[dDab]SWCVCV-NH2 / II: [Dab]T[Dap][Dab][Dab][dL]L[Dab][Dab]T; disulfide I:3-I:12, I:5-I:10; amide I:6-II:N; lactam II:4-II:C) | 0.0625 (≈ 0.0244 µM) | 0.125 (≈ 0.0489 µM) | 0.0625 (≈ 0.0244 µM) | 0.25 (≈ 0.0977 µM) | 0.25 (≈ 0.0977 µM) | 0.0625 (≈ 0.0244 µM) | 0.25 (≈ 0.0977 µM) | 0.25 (≈ 0.0977 µM) | 4 |  |  |  | 
5 | CC(C)C[C@@H]1NC(=O)[C@@H](CC(C)C)NC(=O)[C@H](CCN)NC(=O)[C@@H](NC(=O)[C@H](CCN)NC(=O)[C@@H](NC(=O)[C@H](CCN)NC(=O)CC[C@@H]2NC(=O)[C@H](CCN)NC(=O)[C@H](Cc3ccc(O)cc3)NC(=O)[C@@H](NC(=O)[C@@H](O)C(C)C)C(C)(C)SSC[C@@H](C(=O)N[C@H](CO)[C@@H](C)O)NC(=O)[C@H](C(C)(C)C)NC(=O)[C@H](CO)NC(=O)[C@H](Cc3c[nH]c4ccccc34)NC(=O)[C@H](CCO)NC(=O)[C@@H](CCN)NC2=O)[C@@H](C)O)CCNC(=O)[C@H]([C@@H](C)O)NC(=O)[C@H](CCN)NC(=O)[C@H](CCN)NC1=O [Ex. 84] (I: H-[Hiv][Pen]Y[Dab]E[dDab][hSer]WS[Tle]C[Thr(ol)] / II: [Dab]T[Dab][Dab][Dab][dL]L[Dab][Dab]T; disulfide I:2-I:11; amide I:5-II:N; lactam II:4-II:C) | 0.0625 (≈ 0.0257 µM) | 0.125 (≈ 0.0515 µM) | 0.125 (≈ 0.0515 µM) | 0.125 (≈ 0.0515 µM) | 0.125 (≈ 0.0515 µM) | 0.125 (≈ 0.0515 µM) | 0.25 (≈ 0.103 µM) | 0.25 (≈ 0.103 µM) | <1 |  |  |  | 
6 | CN[C@H](C(=O)N[C@H]1CSSC[C@@H](C(=O)N[C@@H](CO)C(N)=O)NC(=O)[C@H](C(C)C)NC(=O)[C@@H]2CSSC[C@H](NC(=O)[C@H](Cc3ccc(O)cc3)NC1=O)C(=O)N[C@@H](CCC(=O)N[C@@H](CCN)C(=O)N[C@H](C(=O)N[C@@H](CCN)C(=O)N[C@H]1CCNC(=O)[C@H]([C@@H](C)O)NC(=O)[C@H](CCN)NC(=O)[C@H](CCN)NC(=O)[C@H](CC(C)C)NC(=O)[C@@H](CC(C)C)NC(=O)[C@H](CCN)NC1=O)[C@@H](C)O)C(=O)N[C@H](CCN)C(=O)N[C@@H](CCO)C(=O)N[C@@H](Cc1c[nH]c3ccccc13)C(=O)N2)C(C)C [Ex. 177] (I: H-[NMeV]CYCE[dDab][hSer]WCVCS-NH2 / II: [Dab]T[Dab][Dab][Dab][dL]L[Dab][Dab]T; disulfide I:2-I:11, I:4-I:9; amide I:5-II:N; lactam II:4-II:C) | 0.0625 (≈ 0.0259 µM) | 0.25 (≈ 0.103 µM) | 0.125 (≈ 0.0517 µM) | 0.25 (≈ 0.103 µM) | 0.5 (≈ 0.207 µM) | 0.0625 (≈ 0.0259 µM) | 1 (≈ 0.414 µM) | 0.125 (≈ 0.0517 µM) | <1 |  |  |  | 
7 | CC(=O)N[C@H](C(=O)N[C@H]1CSSC[C@@H](C(=O)N[C@@H](C)C(=O)N[C@@H](CO)C(N)=O)NC(=O)[C@H](C(C)C)NC(=O)[C@H](CO)NC(=O)[C@H](Cc2c[nH]c3ccccc23)NC(=O)[C@H](CO)NC(=O)[C@@H](CCN)NC(=O)[C@H](CCC(=O)N[C@@H](CCN)C(=O)N[C@H](C(=O)N[C@@H](CN)C(=O)N[C@H]2CCNC(=O)[C@H]([C@@H](C)O)NC(=O)[C@H](CCN)NC(=O)[C@H](CCN)NC(=O)[C@H](CC(C)C)NC(=O)[C@@H](CC(C)C)NC(=O)[C@H](CCN)NC2=O)[C@@H](C)O)NC(=O)[C@H](CCN)NC(=O)[C@H](Cc2ccc(O)cc2)NC1=O)C(C)C [Ex. 367] (I: Ac-VCY[Dab]E[dDab]SWSVCAS-NH2 / II: [Dab]T[Dap][Dab][Dab][dL]L[Dab][Dab]T; disulfide I:2-I:11; amide I:5-II:N; lactam II:4-II:C) |  | 0.0625 (≈ 0.0253 µM) | 0.03125 (≈ 0.0127 µM) |  | 0.0625 (≈ 0.0253 µM) |  | 0.0625 (≈ 0.0253 µM) |  | <1 | 0.01562 | 0.03125 | 0.007813 | 0.0625
